Measurements taken from patent US10082498B2, “Methods for treating ADHD and bipolar disorder using a membrane potential ratio test” (PSYCHNOSTICS, LLC., priority 2013, dated 2018).
Where a name gives a salt, the structure may show the parent alone.

Legend:
[1] = tested on: human patient with BD or ADHD; test: Clinical response of outpatient psychiatric patients to medication (clinical vignettes); format: in vivo; details: for Clinical stabilization of Bipolar I Disorder: Example 4, person, combination: aripiperazole, citalopram, oxcarbazepine and alprazolam
Experimental: (§1) Certain patients from the outpatient private psychiatric practice were retested after widely varying intervals as shown in the following Examples. Participation was completely voluntary and only allowed after the signing of a consent form. For the purpose of maintaining the privacy of the subject the lab work was performed confidentially (called blinding of the tester). Each patient was assigned an identification (ID) number and only the clinician had access to the key which correlated ID numbers with patient names.

whole blood cells = test: Membrane potential ratio (MPR) test on blood cells of patients under drug treatment; format: in vivo, human; details: for MPR value: Example 6, patient with ADHD
Experimental: The MPR™ test is used to diagnose BD and ADHD. Briefly, the MPR™ test involves measuring the membrane potential of the human cells in a test buffer and in a reference buffer and calculating the ratio of these membrane potentials.
Briefly, the membrane potentials of whole blood cells are measured using two different buffers in a plate reader. The mean MPR™ value is the ratio between the membrane potential of a patient's cells in the test buffer as the numerator and that in the reference buffer as the denominator determined by statistical analysis of multiple measurements, using the ANOVA and the multiple statistical regression analysis.
The membrane potential of a patient's cells may be ascertained by any conventional method, such as by examining the fluorescence intensity of a potential-sensitive lipophilic fluorescent dye. The membrane potential is directly proportional to the intensity of fluorescence according to the following equation: I=CV, wherein I is the fluorescence intensity of a lipophilic fluorescent dye, V is the voltage or membrane potential, and C is a constant that can vary depending on a number of factors such as, but not limited to, temperature, lamp intensity, number of cells, concentration of the fluorescent dye, incubation time, and lipid composition of cells used. The calibration and determination of the value for C can be a cumbersome and unreliable procedure. Thus, according to the present invention, by using the ratio of the fluorescence intensity (I1) of one sample of cells to the fluorescence intensity (I2) of another sample of cells, the constant (C) is canceled out. Such ratio-metric measurements are preferred over absolute measurements.
as §1

human patient with ADHD = test: WHO screener for ADHD symptoms (patient self-report); format: in vivo; details: for WHO screener, score on the 6 screening items / WHO screener, score out of the total possible of 18: Example 5, combination: sertraline 50 mg per day and lamotrigine 200 mg per day
Experimental: Certain patients from the outpatient private psychiatric practice were retested after widely varying intervals as shown in the following Examples. Participation was completely voluntary and only allowed after the signing of a consent form. For the purpose of maintaining the privacy of the subject the lab work was performed confidentially (called blinding of the tester). Each patient was assigned an identification (ID) number and only the clinician had access to the key which correlated ID numbers with patient names. Because these were and are patients presenting for treatment, the priority has been their treatment. They have manifested all the typical variability found in clinical practice, and the resulting data points obtained are those possible under these circumstances. The paired MPR™ results are presented along with clinical vignettes. The patients with repeated tests are shown in example 1 and their vignettes are elucidated here. This clinical data and its interpretation provide the basis for the claims of the invention.

human patient = test: Side effects reported by patients on medication; format: in vivo; details: for Side effects: Example 5, combination: sertraline 50 mg per day and lamotrigine 200 mg per day
[2] = Example 4, combination: escitalopram 10 mg per day, aripiperazole 2 mg per day, alprazolam 0.5 mg twice a day as needed, tapering from oxcarbazepine (A in FIG. 4)
[3] = Example 2, combination: dextroamphetamine sulfate 5 mg three times per day and extended release dexmethylphenidate 20 mg morning and afternoon (C in FIG. 2)
[4] = Example 5, combination: sertraline 50 mg per day and lamotrigine 200 mg per day (B in FIG. 5)
[5] = Example 3, person with BD, combination: lithium, quetiapine and mirtazapine (B in FIG. 3)
[6] = Example 1, combination: selegiline transdermal 12 mg per 24 hours and mixed amphetamine salts 15 mg per day

## Cc1nnc2n1-c1ccc(Cl)cc1C(c1ccccc1)=NC2 [alprazolam]
[1]
  Clinical stabilization of Bipolar I Disorder: not fully stabilized
Whole blood cells; [2]
  MPR test range: bipolar transition range

## O=C1CCc2ccc(OCCCCN3CCN(c4cccc(Cl)c4Cl)CC3)cc2N1 [aripiperazole]
[1]
  Clinical stabilization of Bipolar I Disorder: not fully stabilized
Whole blood cells; [2]
  MPR test range: bipolar transition range

## CC(NC(C)(C)C)C(=O)c1cccc(Cl)c1 (stereo not drawn) [bupropion]
[1]; Example 5, earlier treatment, patient history
  Clinical benefit by history: had not offered a benefit

## C[C@H](N)Cc1ccccc1 [dextroamphetamine sulfate]
Whole blood cells; [3]
  MPR test result range: ADHD transition range

## CN(C)CCC[C@@]1(c2ccc(F)cc2)OCc2cc(C#N)ccc21 [escitalopram]
Whole blood cells; [2]
  MPR test range: bipolar transition range

## COC(=O)[C@H](c1ccccc1)[C@H]1CCCCN1 [extended release dexmethylphenidate, dexmethylphenidate]
[1]; Example 2, combination of dextroamphetamine and extended release dexmethylphenidate, compared with mixed amphetamine salts 40 mg
  Clinical benefit as reported by patient: not working as well
Whole blood cells; [3]
  MPR test result range: ADHD transition range

## Nc1nnc(-c2cccc(Cl)c2Cl)c(N)n1 [lamotrigine]
Human patient with ADHD
  WHO screener, score on the 6 screening items: 0
  WHO screener, score out of the total possible of 18: 1
[1]; Example 5, tapered up as per a starter pack, subject able to return to work
  Clinical benefit: offered benefit quickly
Human patient
  Side effects: without complaint of side effects
Whole blood cells; [4]
  MPR result range: ADHD range

## COC(=O)C(c1ccccc1)C1CCCCN1 (stereo not drawn) [methylphenidate]
[1]; Example 4, 10 mg twice per day, later 10 mg three times per day, added to BD medication
  Clinical effect on ADHD symptoms reported by subject: benefit
Whole blood cells; 10 mg (FIG. 6)
  MPR value: close to the BD side of the negative range
Whole blood cells; dose reduced to 5 mg (FIG. 6)
  MPR value: moved up close to the right value

## CN1CCN2c3ncccc3Cc3ccccc3C2C1 (stereo not drawn) [mirtazapine]
[1]; Example 1, added to mixed amphetamine salts
  Outcome of trial of adding the drug (depression): unsuccessful
Whole blood cells; [5]
  MPR result range: negative (normal) range

## NC(=O)N1c2ccccc2CC(=O)c2ccccc21 [oxcarbazepine]
[1]
  Clinical stabilization of Bipolar I Disorder: not fully stabilized

## OCCN1CCN(CCCN2c3ccccc3Sc3ccc(Cl)cc32)CC1 [perphenazine]
Human patient; Example 3, very low dosage for neurotic anxiety
  Side effect leading to discontinuation: blurred vision

## OCCOCCN1CCN(C2=Nc3ccccc3Sc3ccccc32)CC1 [quetiapine]
[1]; Example 4, addition of lithium 600 mg per day and Seroquel 100 mg at bedtime
  Mood stabilization: further stabilized clinically
Whole blood cells; [5]
  MPR result range: negative (normal) range
Whole blood cells; Example 4, after addition of lithium 600 mg per day and Seroquel 100 mg at bedtime (B in FIG. 4)
  MPR test range: ADHD range

## C#CCN(C)[C@H](C)Cc1ccccc1 [selegiline transdermal, selegiline]
Human patient with ADHD; [6]
  WHO screener, positive items of the six items: 1

## CN[C@H]1CC[C@@H](c2ccc(Cl)c(Cl)c2)c2ccccc21 [sertraline]
Human patient with ADHD
  WHO screener, score on the 6 screening items: 0
  WHO screener, score out of the total possible of 18: 1
[1]; Example 5, person, 100 mg at bedtime
  Clinical effect on depression according to the subject: no longer working
Human patient
  Side effects: without complaint of side effects
Whole blood cells; [4]
  MPR result range: ADHD range
Whole blood cells; Example 5, initial evaluation, subject on sertraline 100 mg at bedtime (A in FIG. 5)
  MPR result range: BD transition range

## mixed amphetamine salts
Human patient with ADHD; [6]
  WHO screener, positive items of the six items: 1
Human patient with ADHD; Example 1, taking only mixed amphetamine salts
  WHO screener, positive items of the 6 items: 3
Human patient with ADHD; Example 1, two weeks after stopping mixed amphetamine salts
  WHO screener, positive items of the 6 items: 4
Human patient with ADHD; Example 2, 40 mg every morning
  WHO screener, positive items of the six items: two
[1]; Example 2, 40 mg every morning
  Symptomatic control of ADHD: good symptomatic control
Whole blood cells; Example 1, blood drawn third week after stopping mixed amphetamine salts (B in FIG. 1)
  MPR value range: ADHD range
Whole blood cells; Example 1, person, taking only mixed amphetamine salts (A in FIG. 1)
  MPR value range: negative (normal) range
Whole blood cells; Example 2, 40 mg every morning, with lamotrigine for BD (B in FIG. 2)
  MPR test result range: negative range
